Test results from patent publication US20080160509A1, “ASSAYS FOR PREDICTING AND ASSESSING PREDISPOSITION TO MALE PATTERN BALDNESS” (priority 2006, published 2008).

Assays:
[1] = target: sex hormone binding globulin (SHBG) (Homo sapiens, UniProt P04278); settings: ratio versus testosterone; cited from earlier work
[2] = tested on: bald subject (Norwood Level VII); test: Antiviral agent and hair growth study in a bald subject; assay type: in vivo, human
Description: A bald subject (Norwood Level VII) who routinely gets fever blisters volunteered to take place in a study to see if the topical application and oral consumption of antiviral drugs would result in hair growth. The individual lacks any hairs on the top of their head. The participant was instructed to cleanse their scalp twice daily with a liquid cleanser using a sonic skincare brush (Clarisonic®). After cleansing topical acyclovir (5%) was applied. The subject is not a candidate for any of the FDA-approved hair loss medications because of a lack of vellus hairs.
After approximately four weeks of treatment, the participant was given valacyclovir (500 mg) instead of oral acyclovir because of potential acyclovir resistance. In addition, the concentration of topical acyclovir was increased to 10%.
The fact that vellus hair formation occurred and converted to pigmented hairs is highly unexpected in a participant with Norwood Level VII baldness.

Chain of sex hormone binding globulin (SHBG) (P04278 30-402): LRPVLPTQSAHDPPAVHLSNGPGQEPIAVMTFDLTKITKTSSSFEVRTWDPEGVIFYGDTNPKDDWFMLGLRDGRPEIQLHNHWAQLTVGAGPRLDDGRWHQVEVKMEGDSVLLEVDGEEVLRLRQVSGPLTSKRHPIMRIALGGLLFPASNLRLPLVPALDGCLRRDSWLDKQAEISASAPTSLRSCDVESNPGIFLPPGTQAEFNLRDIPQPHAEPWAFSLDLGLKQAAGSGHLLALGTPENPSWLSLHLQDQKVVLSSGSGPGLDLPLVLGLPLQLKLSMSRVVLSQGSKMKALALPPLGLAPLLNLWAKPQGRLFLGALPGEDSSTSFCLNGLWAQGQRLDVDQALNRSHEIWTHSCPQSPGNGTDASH

C[C@]12CCC(=O)C[C@@H]1CC[C@@H]1[C@@H]2CC[C@]2(C)[C@@H](O)CC[C@@H]12 [DHT, 5α-dihydrotestosterone]
binding affinity for SHBG relative to testosterone [1]: at least three times

Nc1nc2c(ncn2COCCO)c(=O)[nH]1 [acyclovir]
conversion of vellus hairs to pigmented hairs ([2]; after 16 weeks of treatment, topical acyclovir 10% plus oral valacyclovir (500 mg)): some of the vellus hairs converted to pigmented hairs
hair lengthening ([2]; after 20 weeks, topical acyclovir 10% plus oral valacyclovir (500 mg)): pigmented and unpigmented vellus hairs continued to lengthen
hair growth on scalp ([2]; at 12 weeks, topical acyclovir increased to 10% plus oral valacyclovir (500 mg) from about week 4): long, unpigmented vellus hairs were visible on the scalp
oral lesions ([2]; human, in vivo): marked increase in oral lesions
hair growth on scalp noted by participant ([2]; topical acyclovir (5%) after twice daily scalp cleansing, after two weeks of treatment, one person, Norwood Level VII): small vellus hairs
